The target of one test is Acetylcholinesterase (Homo sapiens, UniProt P22303). The test can be described thus: Concentration required for 50% Acetylcholinesterase inhibition.
Sequence of Acetylcholinesterase (P22303 whole entry): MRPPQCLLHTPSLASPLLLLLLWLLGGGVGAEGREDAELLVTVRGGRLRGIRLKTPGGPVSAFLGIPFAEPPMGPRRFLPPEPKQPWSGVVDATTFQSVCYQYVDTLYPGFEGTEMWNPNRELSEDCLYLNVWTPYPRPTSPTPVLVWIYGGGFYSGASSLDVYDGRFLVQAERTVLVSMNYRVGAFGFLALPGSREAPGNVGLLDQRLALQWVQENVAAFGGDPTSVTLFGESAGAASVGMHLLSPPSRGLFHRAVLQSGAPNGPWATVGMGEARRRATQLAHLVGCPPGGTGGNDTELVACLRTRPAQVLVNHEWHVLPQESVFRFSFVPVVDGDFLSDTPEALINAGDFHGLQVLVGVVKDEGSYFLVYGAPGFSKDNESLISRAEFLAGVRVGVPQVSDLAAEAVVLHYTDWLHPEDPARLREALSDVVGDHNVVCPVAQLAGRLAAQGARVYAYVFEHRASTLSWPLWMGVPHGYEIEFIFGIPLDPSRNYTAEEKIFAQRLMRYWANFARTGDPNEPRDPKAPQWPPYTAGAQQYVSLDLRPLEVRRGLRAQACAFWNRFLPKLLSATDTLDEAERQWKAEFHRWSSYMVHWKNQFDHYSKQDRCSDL
As usually defined, the IC50 is the midpoint of a concentration-inhibition curve. A lower IC50 goes with greater potency in that assay. For the compound `CC(=O)N1C(=O)[C@@H](C)[C@@H]2[C@@H]1CCN2C(=O)[C@@H]1CCCN1S(=O)(=O)c1cccc2c(N(C)C)cccc12`, the IC50 is more than 100 µM.

Regarding `C[C@@H]1C(=O)N(C(=O)C2CC2)[C@H]2CCN(C(=O)[C@@H]3CCCN3S(=O)(=O)c3cccc4c(N(C)C)cccc34)[C@H]12`, the IC50 is more than 100 µM.

The target of a further test is T1, Capsid scaffolding protein (Human cytomegalovirus (strain AD169) (HHV-5) (Human herpesvirus 5), UniProt P16753).
T1 sequence (P16753 whole entry): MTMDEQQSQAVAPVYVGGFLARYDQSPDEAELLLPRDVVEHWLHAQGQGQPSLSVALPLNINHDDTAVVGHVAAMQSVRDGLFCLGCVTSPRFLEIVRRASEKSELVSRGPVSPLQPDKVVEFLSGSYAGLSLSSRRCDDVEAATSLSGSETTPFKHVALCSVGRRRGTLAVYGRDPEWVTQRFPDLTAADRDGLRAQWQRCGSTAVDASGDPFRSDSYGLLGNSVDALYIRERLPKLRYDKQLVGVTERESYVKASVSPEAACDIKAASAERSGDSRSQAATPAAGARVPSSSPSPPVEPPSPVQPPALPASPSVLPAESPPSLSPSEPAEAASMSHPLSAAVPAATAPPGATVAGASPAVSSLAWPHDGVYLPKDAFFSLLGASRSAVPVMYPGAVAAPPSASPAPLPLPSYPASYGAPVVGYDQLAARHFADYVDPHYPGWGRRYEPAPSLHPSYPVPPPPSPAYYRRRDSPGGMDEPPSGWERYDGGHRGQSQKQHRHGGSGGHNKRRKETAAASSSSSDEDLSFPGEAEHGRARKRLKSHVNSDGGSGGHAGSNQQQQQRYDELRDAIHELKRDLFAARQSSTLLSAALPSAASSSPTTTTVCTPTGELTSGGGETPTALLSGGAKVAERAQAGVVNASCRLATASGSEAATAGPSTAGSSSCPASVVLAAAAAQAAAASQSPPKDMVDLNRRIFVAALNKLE
Kind of test: Concentration required for inhibition of human cytomegalo virus (HCMV) protease activity. More on the design: species or system Human herpesvirus 5 strain AD169.
Consider `C[C@@H]1C(=O)N(C(=O)C2CC2)[C@H]2CCN(C(=O)[C@@H]3CCCN3S(=O)(=O)c3cccc(C(=O)N(C)C)c3)[C@H]12`, for which half-maximal inhibition (IC50) was put at 1.4 µM.

As for `C[C@@H]1C(=O)N(C(=O)C2Cc3ccccc32)[C@H]2CCN(C(=O)OCc3ccccc3)C12` (some centres undefined), 11.5 µM corresponded to half-maximal inhibition (IC50).

Take `CC(=O)N1C(=O)[C@H](C)[C@H]2[C@H]1CCN2C(=O)[C@@H]1CCCN1S(=O)(=O)c1cccc2c(N(C)C)cccc12`: the IC50 is more than 500 µM.

Regarding `CC(=O)N1C(=O)[C@@H](C)C2[C@@H]1CCN2S(=O)(=O)CCc1ccccc1` (some centres undefined), the 50% inhibitory concentration (IC50) is 45 µM. This lies in the double-digit micromolar range.

`CC(=O)N1C(=O)[C@@H](C)[C@@H]2[C@@H]1CCN2C(=O)[C@@H]1CCCN1S(=O)(=O)c1cccc2c(N(C)C)cccc12` came in with an IC50 of 0.54 µM. Against the preceding compound, the IC50 is about 83-fold lower.

For `Cc1ccc(S(=O)(=O)N2CCCC2C(=O)N2CC[C@H]3C2[C@H](C)C(=O)N3C=O)cc1` (some centres undefined), the IC50 is 14 µM.

Turning to `COc1ccc(C(=O)N2C(=O)[C@@H](C)C3[C@@H]2CCN3C(=O)OCc2ccccc2)cc1` (some centres undefined), the IC50 was more than 500 µM.

On to `C[C@@H]1C(=O)N(C(=O)C2C(C)(C)C2(C)C)[C@H]2CCN(C(=O)OCc3ccccc3)C12` (some centres undefined), for which the IC50 was more than 500 µM.

As to `CC(=O)N1C(=O)[C@H](C)[C@H]2[C@H]1CCN2C(=O)[C@@H]1CCCN1S(=O)(=O)c1ccc([N+](=O)[O-])cc1`, the midpoint of inhibition, the IC50, lay at 11 µM.

In turn, `C[C@@H]1C(=O)N(CC(O)COc2ccccc2)[C@H]2CCN(C(=O)OCc3ccccc3)C12` (some centres undefined) yielded an IC50 of more than 500 µM.

In the case of `C[C@@H]1C(=O)N(C(=O)C2[C@@H](C)[C@H]2C)[C@H]2CCN(C(=O)OCc3ccccc3)C12` (some centres undefined), the IC50 turned out to be 72 µM.

Compound `CC(=O)N1C(=O)[C@H](C)[C@H]2[C@H]1CCN2C(=O)[C@@H]1CCCN1S(=O)(=O)c1ccc(C)cc1` gave an IC50 of 159 µM.

`CC(=O)N1C(=O)[C@@H](C)[C@@H]2[C@@H]1CCN2C(=O)[C@@H]1CCCN1C(=O)c1ccccc1` displayed an IC50 of 50 µM.

`C[C@H]1C(=O)N(C(=O)C2CC2)[C@@H]2CCN(C(=O)C3CCCCN3S(=O)(=O)c3cccc4c(N(C)C)cccc34)[C@H]21` (some centres undefined) registered an IC50 of 13 µM.

Compound `C[C@@H]1C(=O)N(C(=O)C2[C@@H](C)[C@@H]2C)[C@H]2CCN(C(=O)OCc3ccccc3)C12` (some centres undefined) displayed an IC50 of more than 100 µM.

The compound `C[C@@H]1C(=O)N(C(=O)C2CC2)[C@H]2CCN(C(=O)OCc3ccccc3)C12` (some centres undefined) yielded an IC50 of 9 µM.

`CC(NS(=O)(=O)c1cccc2c(N(C)C)cccc12)C(=O)N1CC[C@@H]2[C@@H]1[C@@H](C)C(=O)N2C(=O)C1CC1` (some centres undefined): the IC50 is 7 µM.

`CC(C)Oc1cccc(S(=O)(=O)N2CCC[C@H]2C(=O)N2CC[C@H]3[C@H]2[C@H](C)C(=O)N3C(=O)C2CC2)c1` had an IC50 of 65 µM. Compared with the last compound, the IC50 is about 9.3-fold higher.

In turn, `CC(=O)N1C(=O)[C@@H](C)C2[C@@H]1CCN2CC(=O)Cc1ccccc1` (some centres undefined) showed a concentration for half-maximal inhibition (IC50) of 79 µM.

On to `C[C@H]1C(=O)N(C(=O)C2CC2)[C@@H]2CCN(C(=O)CN(C)S(=O)(=O)c3cccc4c(N(C)C)cccc34)[C@H]21`, for which the IC50 is more than 100 µM.

In the case of `CC(=O)N1C(=O)[C@@H](C)C2[C@@H]1CCN2C(=O)COc1ccccc1` (some centres undefined), the IC50 was 63 µM. This lies in the double-digit micromolar range.

For `CC1CC1C(=O)N1C(=O)[C@@H](C)C2[C@@H]1CCN2C(=O)OCc1ccccc1` (some centres undefined), the IC50 was determined as 10 µM.

As for `C[C@@H]1C(=O)N(C(=O)C2CC2)[C@H]2CCN(C(=O)[C@@H]3CCCN3S(=O)(=O)Cc3cccc(N(C)C)c3)[C@H]12`, half-maximal inhibition (IC50) was put at 2.2 µM. Against the preceding compound, the IC50 is about 4.5-fold lower.

In turn, `CC(=O)N1C(=O)[C@H](C)[C@H]2[C@H]1CCN2C(=O)[C@@H]1CCCN1C(=O)c1ccccc1` came in with an IC50 of more than 500 µM.

Compound `C[C@@H]1C(=O)N(C=O)[C@H]2CCN(C(=O)OCc3ccccc3)C12` (some centres undefined) had an IC50 of 398 µM.

Another test concerns the target Prothrombin (Homo sapiens, UniProt P00734). The test can be described thus: Concentration required for 50% thrombin inhibition.
`CC(=O)N1C(=O)[C@@H](C)[C@@H]2[C@@H]1CCN2C(=O)[C@@H]1CCCN1S(=O)(=O)c1cccc2c(N(C)C)cccc12`: the IC50 is more than 200 µM.

`C[C@@H]1C(=O)N(C(=O)C2CC2)[C@H]2CCN(C(=O)[C@@H]3CCCN3S(=O)(=O)c3cccc4c(N(C)C)cccc34)[C@H]12`: the IC50 is more than 200 µM.

Target in a further test: not listed separately
The test can be described thus: Concentration required for 50% elastase inhibition.
Regarding `CC(=O)N1C(=O)[C@@H](C)[C@@H]2[C@@H]1CCN2C(=O)[C@@H]1CCCN1S(=O)(=O)c1cccc2c(N(C)C)cccc12`, the IC50 was more than 10 µM.

On to `C[C@@H]1C(=O)N(C(=O)C2CC2)[C@H]2CCN(C(=O)[C@@H]3CCCN3S(=O)(=O)c3cccc4c(N(C)C)cccc34)[C@H]12`, for which the IC50 is more than 10 µM.

Another test concerns the target T1, Capsid scaffolding protein. The test can be described thus: Inhibition of Human cytomegalo virus(HCMV) protease activity measured by HPLC assay. Further details: species or system Human herpesvirus 5 strain AD169.
Compound `CC(=O)N1C(=O)[C@@H](C)C2[C@@H]1CCN2C(=O)C(=O)c1cccn1C` (some centres undefined) returned a 50% inhibitory concentration (IC50) of 5 µM. This lies in the single-digit micromolar range.

`CC(C)C(=O)N1C(=O)[C@@H](C)C2[C@@H]1CCN2C(=O)OCc1ccccc1` (some centres undefined) came in with an IC50 of 126 µM.

`CC(=O)N1C(=O)[C@@H](C)C2[C@@H]1CCN2C(=O)Cc1c(C)[nH]c2ccc(F)cc12` (some centres undefined) returned an IC50 of 6 µM.

For the compound `CC(=O)OCC(=O)N1C(=O)C(C)C2C1CCN2C(=O)OCc1ccccc1` (centres undefined), it took 13 µM to reach half-maximal inhibition (IC50).

`C[C@@H]1C(=O)N(C(=O)CCO)[C@H]2CCN(C(=O)OCc3ccccc3)C12` (some centres undefined) displayed an IC50 of 133 µM.

For the compound `C[C@@H]1C(=O)N(C(=O)C(C)(C)C)[C@H]2CCN(C(=O)OCc3ccccc3)C12` (some centres undefined), the IC50 is more than 500 µM.

Turning to `C[C@@H]1C(=O)N(C(=O)C2CCC2)[C@H]2CCN(C(=O)OCc3ccccc3)C12` (some centres undefined), the IC50 was 32 µM.

`CC(=O)OCC(=O)N1C(=O)[C@@H](C)C2[C@@H]1CCN2C(=O)OCc1ccccc1` (some centres undefined) displayed an IC50 of 6 µM.

(Values after ChEMBL document CHEMBL1135388, “Design and synthesis of pyrrolidine-5,5-trans-lactams (5-oxohexahydropyrrolo[3,2-b]pyrroles) as novel mechanism-based inhibitors of human cytomegalovirus protease. 2. Potency and chirality” (J Med Chem, 2002).)
